Consider six compounds from patent US4767776A, “N-1H-tetrazol-5-yl-2-naphthalene carboxamides and their use as antiallergy and antiinflammatory agents” (Warner-Lambert Company, priority 1987, dated 1988).

The first test deals with human basophils. In words: Histamine release from human basophils (HHB). The class given is cell-based. Particulars: anti-IgE stimulus, at highest dose tested, column head: tested at 33 μM, read-out: % Inhibition of Histamine Release with Anti-IgE Stimulus (at highest dose tested). How it is done: HISTAMINE RELEASE FROM HUMAN BASOPHILS
The blood samples are placed briefly on a rotary mixer. All glassware contacting the blood is siliconized. The blood is aliquoted into three plastic 50 ml centrifuge tubes and the volume is noted. Hespan (hydroxy ethyl starch), 0.5 ml per 1.0 ml of blood, is added. The tubes are inverted several times to mix and are left undisturbed at room temperature until a sharp separation is observed between the settled red cells and the leukocyte and platelet-rich plasma. This usually occurs within 35-45 minutes.
The plasma fraction is pipetted off and placed into two clean plastic 50 ml centrifuge tubes. […] The platelets remain in the plasma and are discarded. The pelleted leukocytes are shaken gently to disrupt the cell button and washed twice as described:
Wash 1. Five ml of HA buffer with 0.005M EDTA is added to the dispersed cells in each tube and gently vortexed. 25 ml of buffer is then added and gently vortexed. The samples are again centrifuged as described earlier. The supernatant is poured off, and the cell button in each tube is gently dispersed.
Wash 2. Five ml of HA buffer with EDTA is added to each tube to resuspend the cells. Leukocytes are then pooled into one tube and the volume is brought up to 40 ml with HA buffer with EDTA and gently vortexed. […] The supernatant fluid is discarded and the cell button is dispersed. Sixteen ml of HACM buffer is added to the washed cells and gently vortexed. A sample is prepared for Hematology, where a total white blood cell and platelet count is done using a Coulter Counter.
Aliquots (0.1 ml) of cells are added to assay tubes containing 0.4 ml of either 6% perchloric acid (for total histamine content), vehicle control (for spontaneous release), or drug. The tubes are incubated at room temperature for 8 minutes, and then placed in a 37° water bath for two more minutes. Buffer or challenge agents (at 37°) are added to the tube and they are incubated for an additional 45 minutes at 37°. The tubes are then spun at 2000 RPM (1200 g) for three minutes to pellet the cells and the supernatants are poured into assay cups.
If the compound is in solution, distilled water is used to bring it up to 100 ml total volume. If the drug is not in solution, 0.2 ml 1N NaOH (or HCl) is added, and then distilled water is added to yield 100 ml total solution. Five ml of the stock solution is diluted (1:2) with 5 ml of two times concentrated HACM (Hepes Albumin Calcium Magnesium) buffer to yield the stock working concentration of 150 μM. […] Further dilutions are made with HACM buffer for 33, 10, 3.3, 1.0 μM, etc.
Short ragweed and house dust extracts (Greer Laboratories, Inc.) are supplied as aqueous extracts in stock concentrations of 40,000 and 10,000 protein nitrogen units per milliliter (PNU/ml), respectively. Aqueous solutions of anti-IgE antisera (rabbit-raised antibody) are purchased from Dako via Accurate Chemicals. The tripeptide f-met-leu-phe (fmlp) from Vega Biochemicals is used. The aqueous solutions of ragweed, house dust, and anti-IgE are diluted 1:2 with two times concentrated HACM and then further diluted with HACM to yield final stock concentrations of […] for ragweed and house dust, and a 1:50 dilution for the anti-IgE antisera. […] The pH is adjusted to 7.4. Further dilutions for working solutions are made in HACM buffer. All stock and working solutions are stored at 4°. Working solutions comprise 1/6 of the final volume in the cell reaction, therefore, working solutions of challenge agents are made up six times the required final concentration (i.e., 600 μM f-met-leu-phe yields 100 μM final concentration in the cellular reaction).
Samples are run in triplicate, using either 1.5 ml polypropylene-capped reaction tubes, or 5.0 ml plastic uncapped tubes.
`CC(C)Oc1ccc2ccc(C(=O)Nc3nnn[nH]3)c(OC(C)C)c2c1` [Example 27, 1,7-bis(1-Methylethoxy)-N-1H-tetrazol-5-yl-2-naphthalenecarboxamide]: the inhibition (commonly the relative decrease from the control value, in per cent) at 33 µM amounted to 0%.

Staying with this test, now noted: anti-IgE stimulus, tested at 33 μM, read-out: % Inhibition of Histamine Release with Anti-IgE Stimulus.
In the case of `COc1ccc2c(OC(C)C)c(C(=O)Nc3nnn[nH]3)ccc2c1` [Example 22, 6-Methoxy-1-(1-methylethoxy)-N-1H-tetrazol-5-yl-2-naphthalenecarboxamide], the inhibition at 33 µM came to 71%.
The same measure, in the same setting: as for `CC(C)Oc1c(C(=O)Nc2nnn[nH]2)ccc2ccccc12` [Example 23, 1-(1-Methylethoxy)-N-1H-tetrazol-5-yl-2-naphthalenecarboxamide], the figure is 16%.
On the same count and under the same terms, as for `COc1ccc2ccc(C(=O)Nc3nn[nH]n3)c(OC)c2c1` [Example 24, 1,7-Dimethoxy-N-1H-tetrazol-5-yl-2-napthalenecarboxamide], the figure is 57%; as for `COc1cccc2c(OC(C)C)c(C(=O)Nc3nnn[nH]3)ccc12` [Example 25, 5-Methoxy-1-(1-methylethoxy)-N-1H-tetrazol-5-yl-2-naphthalenecarboxamide], 11%; as for `COc1ccc2ccc(C(=O)Nc3nnn[nH]3)c(OC(C)C)c2c1` [Example 26, 7-Methoxy-1-(1-methylethoxy)-N-1H-tetrazol-5-yl-2-naphthalenecarboxamide], 91%.
